# Test results taken from patent publication EP0572365A2, “Heteroprostanoids, process for their production and therapeutical use thereof” (NUOVO CONSORZIO SANITARIO NAZIONALE del Dott. Paolo Malizia …, priority 1992, dated 1993).
# Test: Stability assay: storage of buffered water solutions, residual activity measured in the thrombocyte aggregation assay
# Assay type: physicochemical
# Settings: room temperature, water solution buffered at pH 7
# Source text: The stability of some compounds according to the present invention has been compared with that of a natural prostaglandine through storage at room temperature of water solutions buffered at pH 7, by measuring the residual activity in the assay of thrombocyte aggregation at different times; the results, listed in Table III, show a much greater stability: […]
SMILES,residual activity in the assay of thrombocyte aggregation (7 gg),residual activity in the assay of thrombocyte aggregation (1h),residual activity in the assay of thrombocyte aggregation (12h),residual activity in the assay of thrombocyte aggregation (24h)
"CCCCCNC(=O)CN1CCC[C@H]1C(=O)OCCCCC(=O)O [III (X₂=R₂=R₆=CH₂, R₄=CO, R=H, n=4, m=3), L-7-14-dioxo-12,15-diaza-6-oxa-prostanoic acid]",7 gg: 4,1h: 98,12h: 78,24h: 62
"CCCCC(=O)NCC(=O)N1CCC[C@H]1C(=O)OCCCCC(=O)O [III (X₂R₄=CH₂, R₂=R₆=CO, R=H, n=4, m=3), L-7,13,16-trioxo-12,15-diaza-6-oxa-prostanoic]",7 gg: 15,1h: 100,12h: 92,24h: 80
"CCCCC[C@H](O)/C=C/[C@H]1[C@H](O)CC(=O)[C@@H]1CCCCCCC(=O)O [PGE₁, Alprostadil, reference compound]",7 gg: 0,1h: 30,12h: 2,24h: 0
